From the NIST ThermoML archive (doi:10.1016/j.jct.2015.03.017)

Assay: mn = molality of the nth substance listed, in mol/kg
Conditions: 74.66 kPa, Liquid; for speed of sound: Frequency=3 MHz, Sing-around technique in a fixed-path interferometer; for mass density: Vibrating tube method

CCCC[N+](CCCC)(C(C)CC)C(C)CC.[Br-] (stereo unspecified) [N-butyl-N,N-bis(1-methylpropyl)-1-butanaminium bromide] + O
Conditions | mass density, 278.15 K [kg/m3] | mass density, 283.15 K [kg/m3] | mass density, 288.15 K [kg/m3] | mass density, 293.15 K [kg/m3] | speed of sound, 278.15 K [m/s] | speed of sound, 283.15 K [m/s] | speed of sound, 288.15 K [m/s] | speed of sound, 293.15 K [m/s] | speed of sound, 298.15 K [m/s]
m1 = 0.01181 | 1000.58 | 1000.3 | 999.698 | 998.799 | 1431.4 | 1452 | 1470.2 | 1486.2 | 1500.2
m1 = 0.02026 | 1001.03 | 1000.75 | 1000.13 | 999.231 | 1433.3 | 1453.8 | 1472 | 1488 | 1502.1
m1 = 0.03102 | 1001.6 | 1001.32 | 1000.7 | 999.791 | 1435.8 | 1456.1 | 1474.1 | 1489.9 | 1503.9
m1 = 0.04017 | 1002.1 | 1001.81 | 1001.19 | 1000.28 | 1438.2 | 1458.3 | 1476 | 1491.6 | 1505.3
m1 = 0.05043 | 1002.66 | 1002.36 | 1001.73 | 1000.81 | 1440 | 1459.8 | 1477.4 | 1492.9 | 1506.4
m1 = 0.0598 | 1003.17 | 1002.87 | 1002.24 | 1001.32 | 1442.6 | 1462.2 | 1479.5 | 1494.8 | 1508.4
m1 = 0.06968 | 1003.71 | 1003.41 | 1002.76 | 1001.84 | 1445 | 1464.4 | 1481.6 | 1496.6 | 1509.9
m1 = 0.08191 | 1004.37 | 1004.06 | 1003.42 | 1002.5 | 1447.4 | 1466.7 | 1483.7 | 1498.7 | 1511.8
m1 = 0.09038 | 1004.85 | 1004.53 | 1003.89 | 1002.96 | 1450.6 | 1469.6 | 1486.4 | 1501.1 | 1514
m1 = 0.1036 | 1005.56 | 1005.25 | 1004.59 | 1003.66 | 1453.5 | 1472.2 | 1488.9 | 1503.7 | 1516.5

CCCC[N+](CCCC)(CC(C)C)CC(C)C.[Br-] [N-butyl-N,N-bis(2-methylpropyl)-1-butanaminium bromide] + O
Conditions | mass density, 278.15 K [kg/m3] | mass density, 283.15 K [kg/m3] | mass density, 288.15 K [kg/m3] | mass density, 293.15 K [kg/m3] | speed of sound, 278.15 K [m/s] | speed of sound, 283.15 K [m/s] | speed of sound, 288.15 K [m/s] | speed of sound, 293.15 K [m/s] | speed of sound, 298.15 K [m/s]
m1 = 0.01065 | 1000.5 | 1000.23 | 999.628 | 998.731 | 1431.7 | 1452 | 1469.2 | 1485.3 | 1499.3
m1 = 0.01998 | 1000.98 | 1000.71 | 1000.11 | 999.207 | 1433.3 | 1453.7 | 1471.8 | 1487.8 | 1501.8
m1 = 0.0287 | 1001.44 | 1001.16 | 1000.55 | 999.654 | 1435.3 | 1455.5 | 1473.4 | 1489.1 | 1502.9
m1 = 0.03816 | 1001.92 | 1001.65 | 1001.04 | 1000.13 | – | – | – | – | –
m1 = 0.04991 | 1002.55 | 1002.27 | 1001.65 | 1000.74 | 1440.2 | 1460 | 1477.6 | 1493 | 1506.5
m1 = 0.05935 | 1003.05 | 1002.75 | 1002.13 | 1001.22 | 1443 | 1462.6 | 1479.9 | 1495.1 | 1508.5
m1 = 0.06884 | 1003.54 | 1003.25 | 1002.62 | 1001.71 | 1446.3 | 1465.8 | 1483.1 | 1498.3 | 1511.6
m1 = 0.08078 | 1004.18 | 1003.88 | 1003.25 | 1002.33 | 1449 | 1468.1 | 1485.2 | 1500.2 | 1513.4
m1 = 0.0922 | 1004.77 | 1004.47 | 1003.83 | 1002.91 | 1451.4 | 1470.1 | 1486.8 | 1501.5 | 1514.3
m1 = 0.1044 | 1005.43 | 1005.11 | 1004.46 | 1003.53 | 1453.6 | 1472.4 | 1488.9 | 1503.4 | 1516

CC(C)C[N+](CC(C)C)(CC(C)C)CC(C)C.[Br-] [tetra-iso-butyl ammonium bromide] + O
Conditions | mass density, 278.15 K [kg/m3] | mass density, 283.15 K [kg/m3] | mass density, 288.15 K [kg/m3] | mass density, 293.15 K [kg/m3] | speed of sound, 278.15 K [m/s] | speed of sound, 283.15 K [m/s] | speed of sound, 288.15 K [m/s] | speed of sound, 293.15 K [m/s] | speed of sound, 298.15 K [m/s]
m1 = 0.01022 | 1000.51 | 1000.24 | 999.634 | 998.735 | – | – | – | – | –
m1 = 0.02021 | 1001.05 | 1000.77 | 1000.16 | 999.258 | 1434 | 1454.4 | 1472.5 | 1488.5 | 1502.6
m1 = 0.02983 | 1001.57 | 1001.29 | 1000.67 | 999.758 | 1437 | 1457 | 1475 | 1490.5 | 1503.3
m1 = 0.03847 | 1002.04 | 1001.75 | 1001.12 | 1000.21 | 1438.5 | 1458.5 | 1476.2 | 1491.8 | 1505.5
m1 = 0.04829 | 1002.57 | 1002.27 | 1001.63 | 1000.71 | 1441.3 | 1461.2 | 1478.9 | 1494.5 | 1508.1
m1 = 0.05621 | 1002.99 | 1002.68 | 1002.04 | 1001.11 | 1443.4 | 1463.6 | 1480.5 | 1495.7 | 1509.7
m1 = 0.06888 | 1003.67 | 1003.34 | 1002.7 | 1001.76 | 1447 | 1466.5 | 1483.8 | 1498.9 | 1512.2
m1 = 0.07666 | 1004.08 | 1003.76 | 1003.1 | 1002.16 | 1448.2 | 1467.5 | 1484.6 | 1499.7 | 1512.9
m1 = 0.08623 | 1004.6 | 1004.26 | 1003.6 | 1002.64 | 1451.5 | 1469.4 | 1486.2 | 1500.9 | 1513.8
m1 = 0.1002 | 1005.35 | 1005 | 1004.33 | 1003.37 | 1453.7 | 1472.5 | 1489.2 | 1503.9 | 1516.7

CCC(C)[N+](C(C)CC)(C(C)CC)C(C)CC.[Br-] (stereo unspecified) [tetra-sec-butyl ammonium bromide] + O
Conditions | mass density, 278.15 K [kg/m3] | mass density, 283.15 K [kg/m3] | mass density, 288.15 K [kg/m3] | mass density, 293.15 K [kg/m3] | speed of sound, 278.15 K [m/s] | speed of sound, 283.15 K [m/s] | speed of sound, 288.15 K [m/s] | speed of sound, 293.15 K [m/s] | speed of sound, 298.15 K [m/s]
m1 = 0.009699 | 1000.43 | 1000.15 | 999.553 | 998.653 | 1429.9 | 1450.7 | 1469 | 1485.1 | 1499
m1 = 0.01981 | 1000.92 | 1000.64 | 1000.03 | 999.127 | 1432.6 | 1453.1 | 1471.2 | 1487.4 | 1500.9
m1 = 0.03014 | – | – | – | – | 1435.2 | 1455.5 | 1473.4 | 1489.2 | 1503
m1 = 0.04066 | 1002 | 1001.68 | 1001.04 | 1000.12 | 1438.2 | 1458.2 | 1475.9 | 1491.5 | 1505.2
m1 = 0.04983 | 1002.49 | 1002.14 | 1001.5 | 1000.59 | 1440.2 | 1460.1 | 1477.6 | 1493.1 | 1506.5
m1 = 0.0598 | 1003.02 | 1002.66 | 1002 | 1001.08 | 1443.3 | 1463 | 1480.4 | 1495.4 | 1508.3
m1 = 0.07027 | 1003.58 | 1003.21 | 1002.55 | 1001.63 | 1445.7 | 1465.7 | 1483.2 | 1497.7 | 1510.9
m1 = 0.07997 | 1004.11 | 1003.75 | 1003.08 | 1002.12 | 1448.5 | 1468.4 | 1485 | 1499.7 | 1512
m1 = 0.08984 | 1004.68 | 1004.31 | 1003.61 | 1002.64 | 1451.4 | 1471.3 | 1488 | 1501.6 | 1514.2
m1 = 0.1018 | 1005.32 | 1004.97 | 1004.26 | 1003.28 | 1454.9 | 1474.9 | 1490.9 | 1504 | 1516

CCCC[N+](CCCC)(CCCC)CCCC.[Br-] [tetrabutylammonium bromide] + O
Conditions | mass density, 278.15 K [kg/m3] | mass density, 283.15 K [kg/m3] | mass density, 288.15 K [kg/m3] | mass density, 293.15 K [kg/m3] | speed of sound, 278.15 K [m/s] | speed of sound, 283.15 K [m/s] | speed of sound, 288.15 K [m/s] | speed of sound, 293.15 K [m/s] | speed of sound, 298.15 K [m/s]
m1 = 0.01142 | 1000.27 | 999.991 | 999.38 | 998.474 | 1432 | 1452.5 | 1470.9 | 1487.1 | 1501.3
m1 = 0.02179 | 1000.55 | 1000.26 | 999.637 | 998.721 | – | – | – | – | –
m1 = 0.02564 | 1000.66 | 1000.36 | 999.733 | 998.812 | 1436.7 | 1457.5 | 1475.5 | 1491.3 | 1504.8
m1 = 0.03767 | 1000.97 | 1000.66 | 1000.02 | 999.087 | 1439.6 | 1459.7 | 1477.4 | 1492.9 | 1506.4
m1 = 0.0459 | 1001.19 | 1000.87 | 1000.23 | 999.287 | 1442.7 | 1462.5 | 1480.1 | 1495.5 | 1508.9
m1 = 0.05856 | 1001.55 | 1001.21 | 1000.54 | 999.585 | 1446.1 | 1465.7 | 1482.9 | 1498.1 | 1511.7
m1 = 0.0711 | 1001.86 | 1001.51 | 1000.83 | 999.857 | 1450 | 1469.4 | 1486.4 | 1501.3 | 1514.3
m1 = 0.07968 | 1002.09 | 1001.73 | 1001.04 | 1000.05 | 1453 | 1472.2 | 1489.1 | 1504 | 1516.9
m1 = 0.09066 | 1002.42 | 1002.04 | 1001.33 | 1000.34 | 1455.7 | 1474.4 | 1491 | 1505.4 | 1517.9
m1 = 0.1003 | 1002.67 | 1002.28 | 1001.54 | 1000.54 | 1458 | 1476.6 | 1493 | 1507.3 | 1519.7
